Measured values: PubChem BioAssay AID256 (DTP/NCI, 2004)
Where “and” joins values, the source holds several entries; their conditions need not be identical. Equal entries are not always repeated. Inconclusive results and toxic doses are left out. How the source made its calls: active means survival T/C of 150% or more; inactive means T/C below 125% in these data.

System: CD2F1 mice, L1210 leukemia ip, survival T/C
Experiment: NCI In Vivo Anticancer Drug Screen. Data for tumor model L1210 Leukemia (intraperitoneal) in CD2F1 (CDF1) mice
Details: higher = longer survival
Outline: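 Antitumor effect is scored in animals hosting a serially transplanted tumor. Values compare compound-dosed animals against vehicle-only controls as a simple quotient.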

[1] = endpoint: mean survival time, dose: 100.0 mg/kg/injection, schedule: Q01DX009 (ip), vehicle: saline with Tween-80
[2] = endpoint: mean survival time, dose: 100.0 mg/kg/injection, schedule: Q04DX003 (ip), vehicle: saline with Tween-80
[3] = endpoint: mean survival time, dose: 200.0 mg/kg/injection, schedule: Q01DX001 (ip), vehicle: saline with Tween-80
[4] = endpoint: mean survival time, dose: 200.0 mg/kg/injection, schedule: Q01DX009 (ip), vehicle: saline with Tween-80
[5] = endpoint: mean survival time, dose: 200.0 mg/kg/injection, schedule: Q04DX003 (ip), vehicle: saline with Tween-80
[6] = endpoint: mean survival time, dose: 400.0 mg/kg/injection, schedule: Q01DX001 (ip), vehicle: saline with Tween-80
[7] = endpoint: mean survival time, dose: 400.0 mg/kg/injection, schedule: Q01DX009 (ip), vehicle: saline with Tween-80
[8] = endpoint: mean survival time, dose: 400.0 mg/kg/injection, schedule: Q04DX003 (ip), vehicle: saline with Tween-80
[9] = endpoint: mean survival time, dose: 25.0 mg/kg/injection, schedule: Q04DX002 (ip), vehicle: saline with Tween-80
[10] = endpoint: mean survival time, dose: 50.0 mg/kg/injection, schedule: Q04DX002 (ip), vehicle: saline with Tween-80
[11] = endpoint: mean survival time, dose: 100.0 mg/kg/injection, schedule: Q04DX002 (ip), vehicle: saline with Tween-80
[12] = endpoint: mean survival time, dose: 12.5 mg/kg/injection, schedule: Q01DX009 (ip), vehicle: saline with Tween-80
[13] = endpoint: mean survival time, dose: 25.0 mg/kg/injection, schedule: Q01DX009 (ip), vehicle: saline with Tween-80
[14] = endpoint: mean survival time, dose: 50.0 mg/kg/injection, schedule: Q01DX009 (ip), vehicle: saline with Tween-80
[15] = endpoint: mean survival time, dose: 100.0 mg/kg/injection, schedule: Q01DX001 (ip), vehicle: saline
[16] = endpoint: mean survival time, dose: 200.0 mg/kg/injection, schedule: Q01DX001 (ip), vehicle: saline
[17] = endpoint: mean survival time, dose: 400.0 mg/kg/injection, schedule: Q01DX001 (ip), vehicle: saline
[18] = endpoint: mean survival time, dose: 100.0 mg/kg/injection, schedule: Q01DX001 (ip), vehicle: saline with Tween-80
[19] = endpoint: mean survival time, dose: 100.0 mg/kg/injection, schedule: Q04DX003 (ip), vehicle: Klucel (hydroxypropylcellulose) (HPC)
[20] = endpoint: mean survival time, dose: 100.0 mg/kg/injection, schedule: Q01DX009 (ip), vehicle: Klucel (hydroxypropylcellulose) (HPC)

Measured: T/C

CN(C)N=Nc1ccccc1C(=O)NNC(N)=S
inactive: endpoint: mean survival time, dose: 18.75 mg/kg/injection, schedule: Q01DX009 (ip), vehicle: Klucel (hydroxypropylcellulose) (HPC) 98 % of control and 103 % of control | endpoint: mean survival time, dose: 37.5 mg/kg/injection, schedule: Q01DX009 (ip), vehicle: Klucel (hydroxypropylcellulose) (HPC) 121 % of control and 101 % of control | endpoint: mean survival time, dose: 75.0 mg/kg/injection, schedule: Q01DX009 (ip), vehicle: Klucel (hydroxypropylcellulose) (HPC) 107 % of control and 109 % of control | endpoint: mean survival time, dose: 150.0 mg/kg/injection, schedule: Q01DX009 (ip), vehicle: Klucel (hydroxypropylcellulose) (HPC) 115 % of control and 116 % of control | endpoint: mean survival time, dose: 300.0 mg/kg/injection, schedule: Q01DX009 (ip), vehicle: Klucel (hydroxypropylcellulose) (HPC) 104 % of control and 107 % of control

O=C(c1ccccc1)C(Br)C(Br)c1ccccc1 (stereo not drawn)
inactive: [1] 93 % of control | [2] 94 % of control | [3] 91 % of control | [4] 106 % of control | [5] 90 % of control | [6] 94 % of control | [7] 95 % of control | [8] 92 % of control

Nc1ccc(-n2nc3ccc4ccccc4c3n2)cc1
inactive: [9] 98 % of control | [10] 98 % of control | [11] 103 % of control

CC[C@H](CC[C@@H](C)C1CC[C@H]2[C@@H]3CC=C4C[C@@H](OP(=O)(N5CC5)N5CC5)CC[C@]4(C)[C@H]3CC[C@]12C)C(C)C (stereo partly drawn)
inactive: [12] 97 % of control | [13] 92 % of control | [14] 93 % of control | [1] 92 % of control | [4] 108 % of control | [7] 97 % of control

O=S(=O)(Nc1ccc2c3c(cccc13)C=C2)c1ccccc1
inactive: [2] 98 % of control | [5] 98 % of control | [8] 98 % of control

O=C1C=CC(=O)N1c1ccc(Cl)cc1 (tested in a mixture with another compound)
inactive: [1] 93 % of control | [4] 87 % of control | [7] 98 % of control

O=S1CCS(=O)CC1 (stereo not drawn)
inactive: [15] 96 % of control | [16] 93 % of control | [17] 98 % of control

CC(C)(CO)Nc1ccc([N+](=O)[O-])cc1
inactive: [18] 104 % of control | [3] 106 % of control | [6] 107 % of control

COC(=O)c1cccc(OCC(=O)Nc2ccccc2)c1
inactive: [18] 101 % of control | [3] 93 % of control | [6] 92 % of control

COC1OC(CO)C(NC(N)=O)C1O (stereo not drawn)
inactive: [15] 101 % of control | [16] 100 % of control | [17] 95 % of control

O=C(NC1CCCCC1)OCC#CC#CCOC(=O)NC1CCCCC1
inactive: [19] 94 % of control | endpoint: mean survival time, dose: 200.0 mg/kg/injection, schedule: Q04DX003 (ip), vehicle: Klucel (hydroxypropylcellulose) (HPC) 96 % of control | endpoint: mean survival time, dose: 400.0 mg/kg/injection, schedule: Q04DX003 (ip), vehicle: Klucel (hydroxypropylcellulose) (HPC) 100 % of control

Cc1nn(CCO)c(C)c1N=[N+]([O-])c1c(C)nn(CCO)c1C
inactive: endpoint: mean survival time, dose: 3.12 mg/kg/injection, schedule: Q01DX009 (ip), vehicle: Klucel (hydroxypropylcellulose) (HPC) 102 % of control | endpoint: mean survival time, dose: 3.12 mg/kg/injection, schedule: Q01DX009 (ip), vehicle: saline with Tween-80 98 % of control | endpoint: mean survival time, dose: 6.25 mg/kg/injection, schedule: Q01DX009 (ip), vehicle: Klucel (hydroxypropylcellulose) (HPC) 95 % of control | endpoint: mean survival time, dose: 6.25 mg/kg/injection, schedule: Q01DX009 (ip), vehicle: saline with Tween-80 103 % of control | endpoint: mean survival time, dose: 12.5 mg/kg/injection, schedule: Q01DX009 (ip), vehicle: Klucel (hydroxypropylcellulose) (HPC) 96 % of control | [12] 104 % of control | endpoint: mean survival time, dose: 25.0 mg/kg/injection, schedule: Q01DX009 (ip), vehicle: Klucel (hydroxypropylcellulose) (HPC) 95 % of control | [13] 106 % of control | endpoint: mean survival time, dose: 50.0 mg/kg/injection, schedule: Q01DX009 (ip), vehicle: Klucel (hydroxypropylcellulose) (HPC) 101 % of control | [14] 103 % of control | endpoint: mean survival time, dose: 50.0 mg/kg/injection, schedule: Q04DX003 (ip), vehicle: Klucel (hydroxypropylcellulose) (HPC) 113 % of control | [20] 95 % of control | [19] 117 % of control

CCC(C1=NC(C)(C)CC(C)O1)c1ccccc1 (stereo not drawn) (tested in a mixture with another compound)
inactive: [1] 102 % of control | [4] 93 % of control

CC(C)C1=CC2=CCC3C(C)(CN)CCCC3(C)C2CC1CCN (stereo not drawn)
inactive: endpoint: mean survival time, dose: 1.25 mg/kg/injection, schedule: Q01DX009 (ip), vehicle: saline with Tween-80 101 % of control | endpoint: mean survival time, dose: 2.5 mg/kg/injection, schedule: Q01DX009 (ip), vehicle: saline with Tween-80 97 % of control | endpoint: mean survival time, dose: 5.0 mg/kg/injection, schedule: Q01DX009 (ip), vehicle: saline with Tween-80 94 % of control

COc1ccc(C(O)(c2ccccc2)C(OC(=O)c2cc([N+](=O)[O-])cc([N+](=O)[O-])c2)c2ccccc2)cc1 (stereo not drawn)
inactive: [18] 87 % of control | [3] 94 % of control | [6] 91 % of control

COc1ccc(NS(=O)(=O)c2ccc(NC(C)=O)cc2)cc1
inactive: endpoint: mean survival time, dose: 100.0 mg/kg/injection, schedule: Q01DX001 (ip), vehicle: Klucel (hydroxypropylcellulose) (HPC) 104 % of control | [20] 97 % of control | endpoint: mean survival time, dose: 200.0 mg/kg/injection, schedule: Q01DX001 (ip), vehicle: Klucel (hydroxypropylcellulose) (HPC) 96 % of control | endpoint: mean survival time, dose: 200.0 mg/kg/injection, schedule: Q01DX009 (ip), vehicle: Klucel (hydroxypropylcellulose) (HPC) 105 % of control | endpoint: mean survival time, dose: 400.0 mg/kg/injection, schedule: Q01DX001 (ip), vehicle: Klucel (hydroxypropylcellulose) (HPC) 98 % of control | endpoint: mean survival time, dose: 400.0 mg/kg/injection, schedule: Q01DX009 (ip), vehicle: Klucel (hydroxypropylcellulose) (HPC) 96 % of control

Cc1cccc(OCC(O)CN2CC2)c1 (stereo not drawn)
inactive: endpoint: median survival time, dose: 12.5 mg/kg/injection, schedule: Q01DX005 (ip), vehicle: saline with Tween-80 97 % of control and 107 % of control | endpoint: median survival time, dose: 25.0 mg/kg/injection, schedule: Q01DX005 (ip), vehicle: saline with Tween-80 115 % of control and 111 % of control | endpoint: median survival time, dose: 36.0 mg/kg/injection, schedule: Q01DX005 (ip), vehicle: saline with Tween-80 104 % of control | endpoint: median survival time, dose: 50.0 mg/kg/injection, schedule: Q01DX005 (ip), vehicle: saline with Tween-80 113 % of control and 108 % of control | endpoint: median survival time, dose: 60.0 mg/kg/injection, schedule: Q01DX005 (ip), vehicle: saline with Tween-80 113 % of control | endpoint: median survival time, dose: 100.0 mg/kg/injection, schedule: Q01DX005 (ip), vehicle: saline with Tween-80 106 % of control | endpoint: median survival time, dose: 166.66 mg/kg/injection, schedule: Q01DX005 (ip), vehicle: saline with Tween-80 110 % of control

CCCCCC(C)(C)N=[P+]([O-])NC(C)(C)CCCCC (stereo not drawn)
inactive: [9] 95 % of control | [10] 102 % of control | [11] 95 % of control and 98 % of control

O=C1C=CC(=O)c2c(Cl)ccc(O)c21
inactive: endpoint: mean survival time, dose: 3.13 mg/kg/injection, schedule: Q04DX002 (ip), vehicle: other 102 % of control | endpoint: mean survival time, dose: 6.25 mg/kg/injection, schedule: Q04DX002 (ip), vehicle: other 102 % of control | endpoint: mean survival time, dose: 12.5 mg/kg/injection, schedule: Q04DX002 (ip), vehicle: other 96 % of control and 102 % of control
